Measurements reported in ChEMBL document CHEMBL1156053, “Design, synthesis, protein-ligand X-ray structure, and biological evaluation of a series of novel macrocyclic human immunodeficiency virus-1 protease inhibitors to combat drug resistance” (J Med Chem, 2009).

Tests used:
Protease = Protease (Human immunodeficiency virus 1, UniProt Q9YQ12); test: Inhibition of HIV1 protease
[1] = tested on: Human immunodeficiency virus 1; test: Antiviral activity against HIV1 LAI infected in human MT2 cells by MTT assay; format: functional, organism-based; details: Human immunodeficiency virus 1, M:B_Lai
[2] = tested on: Human immunodeficiency virus 1; test: Antiviral activity against multidrug-resistant HIV1 isolate G infected in PHA-stimulated human PBMC assessed as inhibition of p24 […] protein production; format: functional, organism-based; details: Human immunodeficiency virus 1, isolate G
[3] = tested on: Human immunodeficiency virus 1; test: Antiviral activity against multidrug-resistant HIV1 isolate C infected in PHA-stimulated human PBMC assessed as inhibition of p24 […] protein production; format: functional, organism-based; details: Human immunodeficiency virus 1, isolate C
[4] = tested on: Human immunodeficiency virus 1; test: Antiviral activity against wild type HIV1 isolate ERS104pre infected in PHA-stimulated human PBMC assessed as inhibition of p24 […] protein production; format: functional, organism-based; details: Human immunodeficiency virus 1, isolate ERS104pre
[5] = tested on: Human immunodeficiency virus 1; test: Antiviral activity against multidrug-resistant HIV1 isolate MM infected in PHA-stimulated human PBMC assessed as inhibition of p24 […] protein production; format: functional, organism-based; details: Human immunodeficiency virus 1, isolate MM
[6] = tested on: Human immunodeficiency virus 1; test: Antiviral activity against multidrug-resistant HIV1 isolate TM infected in PHA-stimulated human PBMC assessed as inhibition of p24 […] protein production; format: functional, organism-based; details: Human immunodeficiency virus 1, isolate TM
[7] = tested on: Human immunodeficiency virus 1; test: Antiviral activity against multidrug-resistant HIV1 isolate B infected in PHA-stimulated human PBMC assessed as inhibition of p24 […] protein production; format: functional, organism-based; details: Human immunodeficiency virus 1, isolate B
[8] = tested on: Human immunodeficiency virus 1; test: Antiviral activity against multidrug-resistant HIV1 isolate JSL infected in PHA-stimulated human PBMC assessed as inhibition of p24 […] protein production; format: functional, organism-based; details: Human immunodeficiency virus 1, isolate JSL
[9] = tested on: Human immunodeficiency virus 1; test: Selectivity ratio of IC50 for multidrug-resistant HIV1 isolate C to IC50 for wild type HIV1 isolate ERS104pre; format: functional
[10] = tested on: Human immunodeficiency virus 1; test: Selectivity ratio of IC50 for multidrug-resistant HIV1 isolate JSL to IC50 for wild type HIV1 isolate ERS104pre; format: functional
[11] = tested on: Human immunodeficiency virus 1; test: Selectivity ratio of IC50 for multidrug-resistant HIV1 isolate TM to IC50 for wild type HIV1 isolate ERS104pre; format: functional
[12] = tested on: Human immunodeficiency virus 1; test: Selectivity ratio of IC50 for multidrug-resistant HIV1 isolate G to IC50 for wild type HIV1 isolate ERS104pre; format: functional
[13] = tested on: Human immunodeficiency virus 1; test: Selectivity ratio of IC50 for multidrug-resistant HIV1 isolate B to IC50 for wild type HIV1 isolate ERS104pre; format: functional
[14] = tested on: Human immunodeficiency virus 1; test: Selectivity ratio of IC50 for multidrug-resistant HIV1 isolate MM to IC50 for wild type HIV1 isolate ERS104pre; format: functional
[15] = tested on: Human immunodeficiency virus 1; test: Antiviral activity against saquinavir-resistant HIV1 NL4-3; format: functional, organism-based; details: Human immunodeficiency virus 1, NL4-3
[16] = tested on: Human immunodeficiency virus 1; test: Antiviral activity against lopinavir-resistant HIV1 NL4-3; format: functional, organism-based; details: Human immunodeficiency virus 1, NL4-3
[17] = tested on: Human immunodeficiency virus 1; test: Antiviral activity against indinavir-resistant HIV1 NL4-3; format: functional, organism-based; details: Human immunodeficiency virus 1, NL4-3

Sequence of Protease (Q9YQ12 whole entry): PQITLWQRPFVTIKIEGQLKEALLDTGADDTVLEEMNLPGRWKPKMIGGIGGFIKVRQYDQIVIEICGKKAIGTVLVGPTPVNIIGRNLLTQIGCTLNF

| SMILES | Ki (Protease) [nM] | IC50 [1] [nM] | other results |
| --- | --- | --- | --- |
| COc1ccc2c(c1)OCCC/C=C/CC[C@@H](C)CN(C[C@@H](O)[C@H](Cc1ccccc1)NC(=O)O[C@H]1CO[C@H]3OCC[C@H]31)S2(=O)=O | 2.8 | 6.3 |  |
| COc1ccc2c(c1)OCCCCCCCC(C)(C)CN(C[C@@H](O)[C@H](Cc1ccccc1)NC(=O)O[C@H]1CO[C@H]3OCC[C@H]31)S2(=O)=O | 6.8 | > 1000 |  |
| CC(C)CN(C[C@@H](O)[C@H](Cc1ccccc1)NC(=O)O[C@H]1CCOC1)S(=O)(=O)c1ccc(N)cc1 |  |  | IC50 [2]: 430 nM; IC50 [3]: 370 nM; IC50 [4]: 30 nM; IC50 [5]: 210 nM; IC50 [6]: 320 nM; IC50 [7]: > 1000 nM; IC50 [8]: 620 nM |
| C=CCCCCN(C[C@@H](O)[C@H](Cc1ccccc1)NC(=O)O[C@H]1CO[C@H]2OCC[C@H]21)S(=O)(=O)c1ccc(OC)cc1OCC=C | 10 |  |  |
| CC(C)(C)NC(=O)[C@@H]1C[C@@H]2CCCC[C@@H]2CN1C[C@@H](O)[C@H](Cc1ccccc1)NC(=O)[C@H](CC(N)=O)NC(=O)c1ccc2ccccc2n1 |  |  | IC50 [2]: 30 nM; IC50 [3]: 32 nM; IC50 [4]: 8 nM; IC50 [5]: 190 nM; IC50 [6]: 260 nM; IC50 [7]: 270 nM; IC50 [8]: 300 nM |
| C=CCOc1cc(OC)ccc1S(=O)(=O)N(CC=C)C[C@@H](O)[C@H](Cc1ccccc1)NC(=O)O[C@H]1CO[C@H]2OCC[C@H]21 | 0.1 |  |  |
| C=CCCCOc1cc(OC)ccc1S(=O)(=O)N(CC=C)C[C@@H](O)[C@H](Cc1ccccc1)NC(=O)O[C@H]1CO[C@H]2OCC[C@H]21 | 1.02 | 290 |  |
| COc1ccc2c(c1)OCCCCCCCN(C[C@@H](O)[C@H](Cc1ccccc1)NC(=O)O[C@H]1CO[C@H]3OCC[C@H]31)S2(=O)=O | 0.017 | 14 |  |
| COc1ccc2c(c1)OCCCC/C=C\CN(C[C@@H](O)[C@H](Cc1ccccc1)NC(=O)O[C@H]1CO[C@H]3OCC[C@H]31)S2(=O)=O | 0.08 | 23 |  |
| COc1ccc2c(c1)OCCCCCN(C[C@@H](O)[C@H](Cc1ccccc1)NC(=O)O[C@H]1CO[C@H]3OCC[C@H]31)S2(=O)=O | 0.09 | 5.5 |  |
| C=CCCOc1cc(OC)ccc1S(=O)(=O)N(CC=C)C[C@@H](O)[C@H](Cc1ccccc1)NC(=O)O[C@H]1CO[C@H]2OCC[C@H]21 | 0.63 |  |  |
| COc1ccc2c(c1)OCCCCCCCCN(C[C@@H](O)[C@H](Cc1ccccc1)NC(=O)O[C@H]1CO[C@H]3OCC[C@H]31)S2(=O)=O | 0.47 | 22 |  |
| COc1ccc2c(c1)OCCCCCCCCCCN(C[C@@H](O)[C@H](Cc1ccccc1)NC(=O)O[C@H]1CO[C@H]3OCC[C@H]31)S2(=O)=O | 0.82 | 318 |  |
| COc1ccc2c(c1)OCCCCCCCCCN(C[C@@H](O)[C@H](Cc1ccccc1)NC(=O)O[C@H]1CO[C@H]3OCC[C@H]31)S2(=O)=O | 0.67 | 49 |  |
| COc1ccc2c(c1)OCCC/C=C\CC[C@H](C)CN(C[C@@H](O)[C@H](Cc1ccccc1)NC(=O)O[C@H]1CO[C@H]3OCC[C@H]31)S2(=O)=O | 0.31 | 9 |  |
| C=CCCCCOc1cc(OC)ccc1S(=O)(=O)N(CCCCC=C)C[C@@H](O)[C@H](Cc1ccccc1)NC(=O)O[C@H]1CO[C@H]2OCC[C@H]21 | 16.5 | > 1000 |  |
| COc1ccc2c(c1)OCCCCCCC[C@H](C)CN(C[C@@H](O)[C@H](Cc1ccccc1)NC(=O)O[C@H]1CO[C@H]3OCC[C@H]31)S2(=O)=O | 0.07 | 170 |  |
| C=CCCCCOc1cc(OC)ccc1S(=O)(=O)N(CC(C)CC=C)C[C@@H](O)[C@H](Cc1ccccc1)NC(=O)O[C@H]1CO[C@H]2OCC[C@H]21 (some centres undefined) | 15 | 380 |  |

| SMILES | Ki (Protease) [nM] | IC50 [1] [nM] | other results |
| --- | --- | --- | --- |
| COc1ccc2c(c1)OCCC/C=C\CC[C@@H](C)CN(C[C@@H](O)[C@H](Cc1ccccc1)NC(=O)O[C@H]1CO[C@H]3OCC[C@H]31)S2(=O)=O | 6 | 200 |  |
| C=CCCCCOc1cc(OC)ccc1S(=O)(=O)N(CC=C)C[C@@H](O)[C@H](Cc1ccccc1)NC(=O)O[C@H]1CO[C@H]2OCC[C@H]21 | 1.7 | 270 |  |
| COc1ccc2c(c1)OCCCCCCC[C@@H](C)CN(C[C@@H](O)[C@H](Cc1ccccc1)NC(=O)O[C@H]1CO[C@H]3OCC[C@H]31)S2(=O)=O | 3.7 | 650 |  |
| C=CCCCCOc1cc(OC)ccc1S(=O)(=O)N(C[C@@H](O)[C@H](Cc1ccccc1)NC(=O)O[C@H]1CO[C@H]2OCC[C@H]21)CC(C)(C)CC=C | 82 | > 1000 |  |
| Cc1cccc(C)c1OCC(=O)N[C@@H](Cc1ccccc1)[C@@H](O)C[C@H](Cc1ccccc1)NC(=O)[C@H](C(C)C)N1CCCNC1=O [LOPINAVIR] |  |  | IC50 [2]: 260 nM; IC50 [3]: > 1000 nM; Ratio IC50 [9]: >29; Ratio IC50 [10]: >29; IC50 [4]: 34 nM; Ratio IC50 [11]: >29; Ratio IC50 [12]: 8; Ratio IC50 [13]: >29; IC50 [5]: > 1000 nM; Ratio IC50 [14]: >29; IC50 [6]: > 1000 nM; IC50 [7]: > 1000 nM; IC50 [8]: > 1000 nM |
| COc1ccc(S(=O)(=O)N(CC(C)C)C[C@@H](O)[C@H](Cc2ccccc2)NC(=O)O[C@H]2CO[C@H]3OCC[C@H]32)cc1 |  | 1.2 |  |
| COc1ccc2c(c1)OCCCCCCN(C[C@@H](O)[C@H](Cc1ccccc1)NC(=O)O[C@H]1CO[C@H]3OCC[C@H]31)S2(=O)=O | 0.15 | 95 |  |
| C=CCCCCOc1cc(OC)ccc1S(=O)(=O)N(C[C@@H](C)CC=C)C[C@@H](O)[C@H](Cc1ccccc1)NC(=O)O[C@H]1CO[C@H]2OCC[C@H]21 | 58 | > 1000 |  |
| COc1ccc2c(c1)OC/C=C\CN(C[C@@H](O)[C@H](Cc1ccccc1)NC(=O)O[C@H]1CO[C@H]3OCC[C@H]31)S2(=O)=O | 2.4 |  |  |
| COc1ccc2c(c1)OCCC/C=C/CCC(C)(C)CN(C[C@@H](O)[C@H](Cc1ccccc1)NC(=O)O[C@H]1CO[C@H]3OCC[C@H]31)S2(=O)=O | 6.9 | > 1000 |  |
| C=CCCCCN(C[C@@H](O)[C@H](Cc1ccccc1)NC(=O)O[C@H]1CO[C@H]2OCC[C@H]21)S(=O)(=O)c1ccc(OC)cc1OCCCC=C | 11.5 | > 1000 |  |
| COc1ccc2c(c1)OCC/C=C\CN(C[C@@H](O)[C@H](Cc1ccccc1)NC(=O)O[C@H]1CO[C@H]3OCC[C@H]31)S2(=O)=O | 0.051 | 15 |  |
| CC(C)(C)NC(=O)[C@@H]1CN(Cc2cccnc2)CCN1C[C@@H](O)C[C@@H](Cc1ccccc1)C(=O)N[C@H]1c2ccccc2C[C@H]1O.O |  |  | IC50 [2]: 340 nM; IC50 [3]: > 1000 nM; Ratio IC50 [9]: >23; Ratio IC50 [10]: >23; IC50 [4]: 43 nM; Ratio IC50 [11]: >23; Ratio IC50 [12]: 5; Ratio IC50 [13]: >23; IC50 [5]: > 1000 nM; Ratio IC50 [14]: >23; IC50 [6]: > 1000 nM; IC50 [7]: > 1000 nM; IC50 [8]: > 1000 nM |
| C=CCCCCN(C[C@@H](O)[C@H](Cc1ccccc1)NC(=O)O[C@H]1CO[C@H]2OCC[C@H]21)S(=O)(=O)c1ccc(OC)cc1OCCC=C | 6.9 |  |  |
| COc1ccc2c(c1)OCCC=CCCCCN(C[C@@H](O)[C@H](Cc1ccccc1)NC(=O)O[C@H]1CO[C@H]3OCC[C@H]31)S2(=O)=O |  |  | IC50 [15]: 20 nM; IC50 [16]: 20 nM; IC50 [17]: 20 nM |
| COc1ccc2c(c1)OCCC/C=C\CN(C[C@@H](O)[C@H](Cc1ccccc1)NC(=O)O[C@H]1CO[C@H]3OCC[C@H]31)S2(=O)=O | 0.077 | 20 |  |
| COc1ccc2c(c1)OCCC/C=C/CC[C@H](C)CN(C[C@@H](O)[C@H](Cc1ccccc1)NC(=O)O[C@H]1CO[C@H]3OCC[C@H]31)S2(=O)=O | 0.15 | 52 |  |
| COc1ccc2c(c1)OC/C=C\CCCCN(C[C@@H](O)[C@H](Cc1ccccc1)NC(=O)O[C@H]1CO[C@H]3OCC[C@H]31)S2(=O)=O | 0.058 | 14 |  |
